Test [1] concerns HCV genotype 1a (H77 strain) replicon in HUH-7 cells. Briefly: HCV replicon luciferase reporter assay, genotype 1a. It counts as cell-based. The conditions noted are these: Hepatitis C virus, Huh-7, 72 h, HCV genotype 1a replicon luciferase assay, 3 days incubation, range class, read-out: LE_1a (EC50, range). The essentials:
(§1)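 Replicon inhibition for both genotypes was measured as Renilla luciferase signal (EnduRen, 7.5 μM final, 2 h) after 3-day, 37° C exposure of replicon-bearing HUH-7 cells in 4% FCS DMEM, 0.5% DMSO. The 1b construct carries S1179I; the 1a H77 construct carries P1496L and S2204I. Twenty-point, 3-fold dilutions were fitted four-parametrically for EC50, and CC50 was taken from multiplexed Cell Titer-Blue.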
A general note: A replicon is a self-replicating genome or part of one, used to study replication in cells.

Test [2] deals with HCV genotype 1b (Con1) replicon in HUH-7 cells. The experiment in a line: HCV replicon luciferase reporter assay, genotype 1b. The following applies: Hepatitis C virus, Huh-7, 72 h, HCV genotype 1b replicon luciferase assay, 3 days incubation, range class, read-out: LE_1b (EC50, range). The class given is cell-based. Put shortly: as §1

Turning to `COc1ccc2c(O[C@@H]3C[C@H]4C(=O)N[C@]5(C(=O)NS(=O)(=O)C6CC6)C[C@H]5/C=C\CC[C@H](C)C[C@@H](C)[C@H](NC(=O)OC(C)(C)C(F)(F)F)C(=O)N4C3)nc(N3CCOCC3)cc2c1` [Compound 3098, 1,1,1-trifluoro-2-methylpropan-2-yl((2R,6S,7R,9S,13aS,14aR,16aS,Z)-14a-((cyclopropylsulfonyl)carbamoyl)-2-((6-methoxy-3-morpholinoisoquinolin-1-yl)oxy)-7,9-dimethyl-5,16-dioxo-1,2,3,5,6,7,8,9,10,11,13a,14,14a,15,16,16a-hexadecahydrocyclopropa[e]pyrrolo[1,2-a][1,4]diazacyclopentadecin-6-yl)carbamate], the EC50 in test [1] and in test [2] was less than 5.46 nM throughout.

`COc1ccc2c(O[C@@H]3C[C@H]4C(=O)N[C@]5(C(=O)NS(=O)(=O)C6CC6)C[C@H]5/C=C\CC[C@@H](C)C[C@@H](C)[C@H](NC(=O)OC(C)(C)C(F)(F)F)C(=O)N4C3)nc(N3CCOCC3)cc2c1` [Compound 3099, 1,1,1-trifluoro-2-methylpropan-2-yl((2R,6S,7R,9R,13aS,14aR,16aS,Z)-14a-((cyclopropylsulfonyl)carbamoyl)-2-((6-methoxy-3-morpholinoisoquinolin-1-yl)oxy)-7,9-dimethyl-5,16-dioxo-1,2,3,5,6,7,8,9,10,11,13a,14,14a,15,16,16a-hexadecahydrocyclopropa[e]pyrrolo[1,2-a][1,4]diazacyclopentadecin-6-yl)carbamate]: the 50% effective concentration (EC50) in test [1] and in test [2] was less than 5.46 nM throughout.

For the compound `[2H]C([2H])([2H])C(OC(=O)N[C@@H]1C(=O)N2C[C@H](Oc3nc(N4CCOCC4)cc4cc(OC)ccc34)C[C@H]2C(=O)N[C@]2(C(=O)NS(=O)(=O)C3CC3)C[C@H]2/C=C\CC[C@H](C)C[C@H]1C)(C([2H])([2H])[2H])C(F)(F)F` [Compound 3100, 1,1,1,3,3,3-hexadeutero-2-(trifluoromethyl)propan-2-yl((2R,6S,7R,9S,13aS,14aR,16aS,Z)-14a-((cyclopropylsulfonyl)carbamoyl)-2-((6-methoxy-3-morpholinoisoquinolin-1-yl)oxy)-7,9-dimethyl-5,16-dioxo-1,2,3,5,6,7,8,9,10,11,13a,14,14a,15,16,16a-hexadecahydrocyclopropa[e]pyrrolo[1,2-a][1,4]diazacyclopentadecin-6-yl)carbamate], the EC50 in test [1] and in test [2] was less than 5.46 nM each time.

Regarding `[2H]C([2H])([2H])C(OC(=O)N[C@@H]1C(=O)N2C[C@H](Oc3nc(N4CCOCC4)cc4cc(OC)ccc34)C[C@H]2C(=O)N[C@]2(C(=O)NS(=O)(=O)C3CC3)C[C@H]2/C=C\CC[C@@H](C)C[C@H]1C)(C([2H])([2H])[2H])C(F)(F)F` [Compound 3101, 1,1,1,3,3,3-hexadeutero-2-(trifluoromethyl)propan-2-yl((2R,6S,7R,9R,13aS,14aR,16aS,Z)-14a-((cyclopropylsulfonyl)carbamoyl)-2-((6-methoxy-3-morpholinoisoquinolin-1-yl)oxy)-7,9-dimethyl-5,16-dioxo-1,2,3,5,6,7,8,9,10,11,13a,14,14a,15,16,16a-hexadecahydrocyclopropa[e]pyrrolo[1,2-a][1,4]diazacyclopentadecin-6-yl)carbamate], the EC50 in test [1] and in test [2] was less than 5.46 nM each time.

As to `COc1ccc2c(O[C@@H]3C[C@H]4C(=O)N[C@]5(C(=O)NS(=O)(=O)C6CC6)C[C@H]5/C=C\CC[C@H](C)C[C@@H](C)[C@H](NC(=O)O[C@H](C)C(F)(F)F)C(=O)N4C3)nc(N3CCOCC3)cc2c1` [Compound 3102, (R)-1,1,1-trifluoropropan-2-yl ((2R,6S,7R,9S,13aS,14aR,16aS,Z)-14a-((cyclopropylsulfonyl)carbamoyl)-2-((6-methoxy-3-morpholinoisoquinolin-1-yl)oxy)-7,9-dimethyl-5,16-dioxo-1,2,3,5,6,7,8,9,10,11,13a,14,14a,15,16,16a-hexadecahydrocyclopropa[e]pyrrolo[1,2-a][1,4]diazacyclopentadecin-6-yl)carbamate], the concentration giving a half-maximal response (EC50) (in general, the concentration giving half of the maximal effect) in test [1] is 4.82 to 103 nM; in test [2] it was less than 5.46 nM.

Consider `COc1ccc2c(O[C@@H]3C[C@H]4C(=O)N[C@]5(C(=O)NS(=O)(=O)C6CC6)C[C@H]5/C=C\CC[C@@H](C)C[C@@H](C)[C@H](NC(=O)O[C@H](C)C(F)(F)F)C(=O)N4C3)nc(N3CCOCC3)cc2c1` [Compound 3103, (R)-1,1,1-trifluoropropan-2-yl ((2R,6S,7R,9R,13aS,14aR,16aS,Z)-14a-((cyclopropylsulfonyl)carbamoyl)-2-((6-methoxy-3-morpholinoisoquinolin-1-yl)oxy)-7,9-dimethyl-5,16-dioxo-1,2,3,5,6,7,8,9,10,11,13a,14,14a,15,16,16a-hexadecahydrocyclopropa[e]pyrrolo[1,2-a][1,4]diazacyclopentadecin-6-yl)carbamate], for which the 50% effective concentration (EC50) in test [1] and in test [2] was less than 5.46 nM throughout.

For `COc1ccc2c(O[C@@H]3C[C@H]4C(=O)N[C@]5(C(=O)NS(=O)(=O)C6CC6)C[C@H]5/C=C\CC[C@H](C)C[C@@H](C)[C@H](NC(=O)O[C@@H]5C[C@@H]6C[C@@H]6C5)C(=O)N4C3)nc(N3CCOCC3)cc2c1` [Compound 3104, (1R,3r,5S)-bicyclo[3.1.0]hexan-3-yl((2R,6S,7R,9S,13aS,14aR,16aS,Z)-14a-((cyclopropylsulfonyl)carbamoyl)-2-((6-methoxy-3-morpholinoisoquinolin-1-yl)oxy)-7,9-dimethyl-5,16-dioxo-1,2,3,5,6,7,8,9,10,11,13a,14,14a,15,16,16a-hexadecahydrocyclopropa[e]pyrrolo[1,2-a][1,4]diazacyclopentadecin-6-yl)carbamate], the EC50 in test [1] and in test [2] was 4.82 to 103 nM throughout.

For `COc1ccc2c(O[C@@H]3C[C@H]4C(=O)N[C@]5(C(=O)NS(=O)(=O)C6CC6)C[C@H]5/C=C\CC[C@@H](C)C[C@@H](C)[C@H](NC(=O)O[C@@H]5C[C@@H]6C[C@@H]6C5)C(=O)N4C3)nc(N3CCOCC3)cc2c1` [Compound 3105, (1R,3r,5S)-bicyclo[3.1.0]hexan-3-yl((2R,6S,7R,9R,13aS,14aR,16aS,Z)-14a-((cyclopropylsulfonyl)carbamoyl)-2-((6-methoxy-3-morpholinoisoquinolin-1-yl)oxy)-7,9-dimethyl-5,16-dioxo-1,2,3,5,6,7,8,9,10,11,13a,14,14a,15,16,16a-hexadecahydrocyclopropa[e]pyrrolo[1,2-a][1,4]diazacyclopentadecin-6-yl)carbamate], the EC50 in test [1] and in test [2] was less than 5.46 nM throughout.

Take `COc1ccc2c(O[C@@H]3C[C@H]4C(=O)N[C@]5(C(=O)NS(=O)(=O)C6CC6)C[C@H]5/C=C\CC[C@H](C)C[C@@H](C)[C@H](NC(=O)OC(C)(C)C)C(=O)N4C3)nc(N3CCOCC3)cc2c1` [Compound 3106, tert-butyl ((2R,6S,7R,9S,13aS,14aR,16aS,Z)-14a-((cyclopropylsulfonyl)carbamoyl)-2-((6-methoxy-3-morpholinoisoquinolin-1-yl)oxy)-7,9-dimethyl-5,16-dioxo-1,2,3,5,6,7,8,9,10,11,13a,14,14a,15,16,16a-hexadecahydrocyclopropa[e]pyrrolo[1,2-a][1,4]diazacyclopentadecin-6-yl)carbamate]: the concentration for a half-maximal effect (EC50) in test [1] and in test [2] was 4.82 to 103 nM each time.

(Values after patent US9499550B2 (BRISTOL-MYERS SQUIBB COMPANY, priority 2012, dated 2016).)
